For the data set, the system named is CHO cell lines (Cell line A and Cell line B). The class given is cell-based, Chinese Hamster. The procedure: To test for the effect of toxicity of high polyoxypropylene-polyoxyethylene block copolymer (LUTROL® F68) concentration on cells, two CHO cell lines (Cell line A and Cell line B) expressing different monoclonal antibodies were carried over 10 passages (at 3 days/passage), at an initial seeding density of 8×10^5 cells/ml in 250 ml shake flasks with cell culture media containing 1, 2, 3, 4 or 5 g/L polyoxypropylene-polyoxyethylene block copolymer (LUTROL® F68).
An overall increase in cell density was observed (3.4-6.5×10^6 cells/ml) after 3 days. Viable cell density was normalized to the 1 g/L condition to enable comparison between the different polyoxypropylene-polyoxyethylene block copolymer (LUTROL® F68) concentrations.
The cells grown in media containing 3, 4 or 5 g/L polyoxypropylene-polyoxyethylene block copolymer (LUTROL® F68) were consistently higher over the passages, in which a 10% increase in cell density was measured compared to the 1 g/L condition (p<0.01) (FIG. 7A). The viability was also greater for the higher polyoxypropylene-polyoxyethylene block copolymer (LUTROL® F68) cultures (mean >95%) (FIG. 7B). […] The variation of viable cell density, % viability.

Where only a bound is given, the exact number is not on record here.

One substance from US11427848B2, “Methods for harvesting mammalian cell cultures” (Amgen Inc., priority 2014, dated 2022) can be followed below.

With poloxamer 188 [LUTROL® F68], the “cell diameter compared to the 1 g/L condition” value is recorded as “increased slightly”, the “increase in cell density compared to the 1 g/L condition” value was determined as 10% and the “viability (mean)” value is recorded as more than 95%.
